# Reference: PubChem BioAssay (NCI)
#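 Assay format: 96-well plates, 48-hour exposure. Abbreviation: GI50, concentration required for 50% inhibition of growth. Definition used: TGI = concentration required for complete inhibition of growth.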
# Experiments:
# Test in all cases: NCI anticancer screen, dose series, 48 h
# SF-295 CNS = system: SF-295 CNS
# SR leukemia = system: SR leukemia
# HOP-92 NSCLC = system: HOP-92 NSCLC
# UO-31 renal = system: UO-31 renal
# OVCAR-3 ovarian = system: OVCAR-3 ovarian
# TK-10 renal = system: TK-10 renal
# NCI-H226 lung = system: NCI-H226 lung
# COLO 205 colon = system: COLO 205 colon
# NCI-H460 lung = system: NCI-H460 lung
# MCF7 breast = system: MCF7 breast
Structure (SMILES),TGI (SF-295 CNS) [µM],TGI (SR leukemia) [µM],TGI (HOP-92 NSCLC) [µM],TGI (UO-31 renal) [µM],TGI (OVCAR-3 ovarian) [µM],TGI (TK-10 renal) [µM],TGI (NCI-H226 lung) [µM],TGI (COLO 205 colon) [µM],TGI (NCI-H460 lung) [µM],GI50 (NCI-H460 lung) [µM],GI50 (SF-295 CNS) [µM],GI50 (SR leukemia) [µM],GI50 (HOP-92 NSCLC) [µM],GI50 (UO-31 renal) [µM],GI50 (OVCAR-3 ovarian) [µM],GI50 (TK-10 renal) [µM],GI50 (NCI-H226 lung) [µM],GI50 (COLO 205 colon) [µM],GI50 (MCF7 breast) [µM],TGI (MCF7 breast) [µM]
CCOC(=O)C(Br)=C1OC(=O)c2ccccc2-c2ccccc21 (mixture of isomers),54.4,47.2,29.5,> 100,35.9,49,60.4,32.9,–,–,–,–,–,–,–,–,–,–,–,–
FC(F)(F)c1ccc2nc(NCc3ccccc3)c(-c3ccccc3)nc2c1,> 100,80.8,17.9,92.9,> 100,> 100,> 100,> 100,> 100,–,–,–,–,–,–,–,–,–,–,–
C[N+](C)(C)CC(=O)N/N=C(/Cc1cc(=O)oc2cc(O)ccc12)C(=O)Nc1ccc(Cl)cc1,> 100,> 100,–,> 100,> 100,> 100,–,> 100,> 100,–,–,–,–,–,–,–,–,–,–,–
CCCCCCCCCCCC[N+]12CC[N+](CCN)(CC1)CC2,> 100,81.7,> 100,> 100,> 100,39.7,> 100,> 100,> 100,–,–,–,–,–,–,–,–,–,–,–
CC12c3ccccc3C(OC=O)(c3ccccc31)C1(C)c3ccccc3C2(OC=O)c2ccccc21,> 100,48.6,> 100,> 100,> 100,> 100,> 100,> 100,> 100,–,–,–,–,–,–,–,–,–,–,–
CC(=O)N/C(=C\c1ccccc1/C=C(\NC(C)=O)c1nc2cc(C)c(C)cc2[nH]1)c1nc2cc(C)c(C)cc2[nH]1,–,> 100,62.1,12.5,35.7,> 100,> 100,> 100,97.9,–,–,–,–,–,–,–,–,–,–,–
O=C1C=C(c2c(O)ccc3ccccc23)c2cc(O)ccc2C1=O,34.9,42.9,31.9,36.5,22.5,35.4,44.1,40,44.7,–,–,–,–,–,–,–,–,–,–,–
CC1=C(C(=O)Nc2ccccc2)C(c2ccc(Cl)c(Cl)c2)C(C(=O)Nc2ccccc2)=C(C)N1,25.5,–,–,26,25.3,75.2,–,29.4,31.2,–,–,–,–,–,–,–,–,–,–,–
CCCN(CCC)c1c([N+](=O)[O-])cc(C(=O)N(CC)CC)cc1[N+](=O)[O-],> 100,55.2,–,63.1,33.3,76.8,71.3,32.7,60.2,–,–,–,–,–,–,–,–,–,–,–
CCOc1ccc(OCC(=O)O)c2c1CCCC2=O,> 100,> 100,> 100,> 100,> 100,> 100,> 100,> 100,> 100,–,–,–,–,–,–,–,–,–,–,–
O=Cc1cc2c(cc1-c1cc3c(cc1C=O)OCO3)OCO2,> 100,71,> 100,> 100,> 100,> 100,> 100,> 100,> 100,–,–,–,–,–,–,–,–,–,–,–
O=c1[nH]c(=O)n(C2CC(O)C(CO)O2)cc1OS(=O)(=O)C(F)(F)F (stereo not given),> 100,–,> 100,–,> 100,> 100,> 100,> 100,> 100,–,–,–,–,–,–,–,–,–,–,–
COc1cc(OC)c(OC)cc1/C=N/NC(=O)N/N=C/c1cc(OC)c(OC)cc1OC,> 100,–,> 100,> 100,> 100,> 100,> 100,> 100,> 100,–,–,–,–,–,–,–,–,–,–,–
c1ccc2c(c1)CCc1c(-c3ccncc3)n[nH]c1-2,> 100,73.8,–,–,33.3,> 100,55.6,63.3,> 100,–,–,–,–,–,–,–,–,–,–,–
Cc1cc2c(cc1C)[n+](=O)cc(C(=O)C/C(=N/NC(=S)NN)C(=O)Nc1cccc(C(F)(F)F)c1)n2[O-],> 100,> 100,> 100,> 100,> 100,> 100,> 100,> 100,> 100,–,–,–,–,–,–,–,–,–,–,–
COCOCCC#CCO,> 100,> 100,> 100,> 100,> 100,> 100,–,–,> 100,–,–,–,–,–,–,–,–,–,–,–
Cc1nc2c(N)ncnc2o1,> 100,–,> 100,> 100,> 100,> 100,> 100,> 100,> 100,–,–,–,–,–,–,–,–,–,–,–
O=c1[nH]c(O)c(C=Nc2ccc(-c3nc4ccccc4o3)cc2)c(=O)[nH]1,68.9,> 100,> 100,> 100,57.4,> 100,> 100,> 100,> 100,> 100,23.7,44.5,> 100,82.4,15.6,40.6,90.3,23.2,–,–
C=C(C)[C@@H]1CC[C@]2(CN)CC[C@]3(C)[C@H](CC[C@@H]4[C@@]5(C)CCCNC(C)(C)[C@@H]5CC[C@]43C)[C@@H]12,3.29,–,3.28,3.05,–,3.52,3.8,2.91,2.67,1.24,1.78,–,1.69,1.56,–,1.86,1.88,1.4,1.27,2.7
COc1cc(/C=C2\CCCCC3=C2N=C2SC(C)=CN2C3c2cc(OC)c(OC)c(OC)c2)cc(OC)c1OC (stereo not given),> 100,–,> 100,> 100,> 100,> 100,> 100,> 100,> 100,96.1,18,–,0.609,22.6,23.7,22.4,11,41.6,22.6,> 100
C/C(=N\NC(N)=O)c1sc(-c2nc(C)c(/C(C)=N/NC(N)=O)s2)nc1C,> 100,43.5,> 100,> 100,> 100,> 100,> 100,> 100,> 100,–,–,–,–,–,–,–,–,–,–,–
O=C1C=C(Nc2ccc(Cl)cc2C(=O)c2ccccc2)c2ccccc2C1=O,> 100,–,–,> 100,> 100,> 100,> 100,> 100,> 100,–,–,–,–,–,–,–,–,–,–,–
